Experiments:
[1] = Biodistribution after single Carboxylated CTX-Cryptophycin dose in NRP1 WT or KO PC-3 xenografts in SCID mice; assay type: in vivo, mouse; conditions: single 0.6 mg/kg Carboxylated CTX-Cryptophycin IV
Description: Cells used were human prostate cancer cells, PC-3 (ATCC® CRL-1435™) engineered at WuXi AppTec to generate an isogenic pair of cell lines WT (PC-3-sg1-4 WT cells) and KO (PC-3-sg1-9 KO cells) for NRP1. Mice used were female, ˜6 week old, immune compromised NOD. SCID from Charles River laboratories. Identical experiments were performed side by side in the isogenic xenograft models. Drug administration was performed when tumor size reached ˜300 to 500 mm^3. A single dose of Carboxylated CTX-Cryptophycin at 0.6 mg/kg was administered (to mimic dose where differential efficacy was observed) intravenously in the following vehicle: 10% EtOH, 5% Tween80 and 85% saline. Animals were euthanized and whole blood (cardiac puncture) and tumor tissues harvested at predetermined time points from 5 min to 96 h post-dose (n=3 mice per time point). Blood samples were centrifuged to obtain plasma and subsequently stored at −20° C. or lower pending analysis. Tumors were harvested by removing the entire specimen from surrounding tissues. Specimens were immediately rinsed with normal saline solution, blotted dry, then weighed and stored at −20° C. or lower pending analysis. Tumor tissue was cryofractured using the Covaris Cryoprep System (Covaris, Inc.). Once pulverized, samples were lysed in 3:1 (v:w) 1×PBS containing 1× Halt™ Protease Inhibitor Cocktail and 1×EDTA solution (Thermo Scientific, Product No. 78430). Plasma and homogenized tissue samples were extracted via protein precipitation with 3:1 (v:v) methanol:acetonitrile 1:1 (v:v) containing 0.1% acetic acid. […] Pharmacokinetic (PK) parameters were calculated using non-compartmental analysis in C3PO (a proprietary Eisai compound database and pharmacokinetic analysis tool). Mean plasma and tissue concentrations were used to calculate mean PK parameters.

[2] = tested on: PC-3 human prostate cancer cells; test: Co-administration of Cryptophycin Payload with CTX or iRGD in subcutaneous PC-3 xenograft model; assay type: in vivo, mouse; conditions: Cryptophycin Payload alone at 0.4 mg/kg IV
Description: PC-3 human prostate cancer cells (ATCC CRL-1435) were grown in RPMI-1640 medium supplemented with 10% FBS. For inoculation, 2×10^6 PC-3 cancer cells were injected subcutaneously into mice near the right axillary area using a 27-gauge needle in a volume of 0.1 mL. Mice were immune-compromised NU/NU nude females, approximately 6 weeks old from Charles River Labs. Tumors were measured at least twice weekly using calipers and mice were randomized into treatment groups based on tumor size when the average tumor reached approximately 180 mm^3. All treatments were initiated 17 days after tumor inoculation. The experiment included a vehicle-treated group and drug-treated groups (n=5). […]
General health of the mice was monitored and mortality recorded daily. Tumor volume was assessed by caliper (Mitutoyo, Aurora, IL) measurements (mm) using the formula (1×w^2)/2=mm^3, where 1 and w refer to the larger and smaller perpendicular dimensions collected at each measurement. Tumor dimensions were recorded twice per week starting at the initiation of drug treatment. Body weights were recorded twice per week starting on the first day of treatment. Relative body weight was calculated as follows: Relative body weight=(body weight on day of measurement/body weight on first day of treatment). […] The mean±SEM for tumor volume and mean±SEM for relative body weight for each experimental group was calculated. […]

SMILES | Tumor AUC0-96 h of Cryptophycin Metabolite 1 ([1]; NRP1 KO tumors) | Tumor tmax of Cryptophycin Metabolite 1 ([1]; NRP1 KO tumors) | Tumor AUC0-96 h of Cryptophycin Metabolite 1 ([1]; NRP1 WT tumors) | Tumor tmax of Cryptophycin Metabolite 1 ([1]; NRP1 WT tumors) | Antitumor activity (tumor volume) [2]
COc1ccc(CC2NC(=O)C=CCC(C(C)C3OC3c3ccc(CN4CCN(CCC(C)(C)SC)CC4)cc3)OC(=O)C(CC(C)C)NC(=O)C(C)(C)CNC2=O)cc1Cl (centres unmarked) [Cryptophycin Metabolite 1] | 385 pmol·h/g | 24 h | 1494 pmol·h/g | 48 h | –
CCCCNC(=O)Cc1ccccc1SSC(C)(C)CCN1CCN(Cc2ccc(C3OC3C(C)C3CC=CC(=O)NC(Cc4ccc(OC)c(Cl)c4)C(=O)NCC(C)(C)C(=O)NC(CC(C)C)C(=O)O3)cc2)CC1 (centres unmarked) [Cryptophycin Payload] | – | – | – | – | significant antitumor activity

Source: patent US11826399B2, “Chlorotoxin agents and uses thereof” (Eisai Inc., priority 2017, dated 2023)
